Where two headings read alike, the source gives them in different places.
Key:
[1] = Caco-2 cell transport assay (bidirectional); conditions: human, Caco-2, 2.00 μM; for efflux ratio at 2 h, 2 μM: Caco-2, pH 7.4, Efflux Ratio; for Papp A→B at 2 h, 2 μM: Caco-2, pH 7.4, Mean Papp A to B; for Papp A→B at 2 h, 2 μM / Papp B→A at 2 h, 2 μM: pH 7.40; for Papp B→A at 2 h, 2 μM: Caco-2, pH 7.4, Mean Papp B to A
[2] = molecular target: human GHSR (Homo sapiens (Human), UniProt Q92847); experiment: Human GHSR agonist activity, FLIPR calcium fluorescence in human GHSR/CHO stable cell line; format: cell-based
Description: This method was used to determine the agonism effect of the compound of the invention on the activity of human GHSR protein expressed in human GHSR/CHO stable cell line.
Preparation of buffer: HBSS (1X):HEPES (1M)=49:1, containing 0.5% BSA.
Cells of human GHSR/CHO stable cell line were inoculated into a 384-well plate, and incubated overnight. Then, the cell plate was removed, and the medium was discarded. 20 uL buffer as slowly added to each well, and then 20 uL 2X Fluo-4 Direct™ No-wash Loading Buffer was added to each well. The cell plate was incubated in an incubator at 37° C. and 5% CO2 for 50 min, and then removed and allowed to stand at room temperature for 10 min. 30 uL buffer was added to each well in the compound plate; and a buffer plate was additionally prepared and 30 uL buffer was added to each well. Test for agonism of compound: An FLIPR instrument and running software were used. 10 uL buffer was transferred to the cell plate and the value of fluorescence signal was read. 10 uL compound was transferred to the cell plate and the value of fluorescence signal was read. An FLIPR program was used to calculate the difference between the maximum value and the minimum value from the 91st signal point to the 230th signal point. The EC50 value of the compound can be calculated by software from fluorescence values corresponding to various concentrations.

[3] = tested on: growth hormone (GH); experiment: In-vivo pharmacodynamic test in rats: plasma GH level by ELISA after oral administration; design: species or system Sprague-Dawley (SD) rats; conditions: for GH concentration in rats: male SD rats, oral, 4 mpk in 10% HS15
[4] = in vitro; conditions: human; for Papp B→A at 2 h, 2 μM: Caco-2, pH 7.4, Mean Papp B to A
[5] = tested on: Caco-2 cells; conditions: human, Caco-2, 2 h, 2 μM, pH 7.4
[6] = Metabolism (pharmacokinetic) test in rats, oral gavage
[7] = tested on: Caco-2 cells; experiment: Caco-2 cell transport assay (bidirectional); conditions: Table 3-1, Caco-2, 2.00 μM
[8] = Subacute toxicity test in rats (14 days oral, 14 days recovery); format: in vivo, Sprague-Dawley (SD) rats
Description: Male Sprague-Dawley (SD) rats (180-220 g) were purchased from Liaoning Changsheng Biotechnology Co., Ltd. (Liaoning, China). All animals were kept in a temperature-controlled room (22±2° C.) with a relative humidity of 55±15% and a 12/12-h light/dark period (the light was turned off at 8:00 pm), with 3 animals in each cage. Animals were adapted to the environment for 1 week after arrival, and allowed to free access to indicated feed and sterilized water, and the padding in the animal cage was changed twice a week.
The compound of the present invention was prepared in 10% HS15.
Multiple doses (30 mpk, 100 mpk and 300 mpk) of the compound of the present invention were orally administered to rats. The compound was administered once a day for consecutive 14 days. The rats were weighed twice a week. […] Compound 5 was given by oral gavage for consecutive 14 days and then recovered for 2 weeks.

[9] = time point 0 min (basic sampling before dosing)
[10] = rats, single oral gavage, 1 mg/mL, 3 mL/kg, active ingredient ibutamoren measured in whole blood
[11] = oral gavage 30, 100, 300 mpk once a day for 14 days, 2 weeks recovery

Sequence of human GHSR (Q92847 whole entry): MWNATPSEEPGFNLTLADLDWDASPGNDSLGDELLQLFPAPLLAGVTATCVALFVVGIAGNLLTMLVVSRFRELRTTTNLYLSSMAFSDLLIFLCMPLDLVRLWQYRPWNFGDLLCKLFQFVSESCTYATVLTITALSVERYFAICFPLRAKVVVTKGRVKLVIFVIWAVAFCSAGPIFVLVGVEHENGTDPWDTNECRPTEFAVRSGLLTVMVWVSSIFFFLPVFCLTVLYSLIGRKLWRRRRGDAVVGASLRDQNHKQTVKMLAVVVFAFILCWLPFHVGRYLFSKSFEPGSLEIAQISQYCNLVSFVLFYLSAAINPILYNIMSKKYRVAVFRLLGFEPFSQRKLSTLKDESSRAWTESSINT

**Q.** Which efflux ratio at 2 h, 2 μM ([1]; Table 3-1) does the source give for `C[C@H]1O[C@@H](O[C@H]2[C@@H](O)C[C@H](O[C@H]3[C@@H](O)C[C@H](O[C@H]4CC[C@@]5(C)[C@H](CC[C@@H]6[C@@H]5C[C@@H](O)[C@]5(C)[C@@H](C7=CC(=O)OC7)CC[C@]65O)C4)O[C@@H]3C)O[C@@H]2C)C[C@H](O)[C@@H]1O` [Digoxin] here?
**A.** 523

**Q.** What about the efflux ratio at 2 h, 2 μM ([1]; Table 3-2) of the same compound?
**A.** 300

**Q.** And the Papp A→B at 2 h, 2 μM ([1]; Table 3-1)?
**A.** 0.0229 ×10⁻⁶ cm/s

**Q.** What about the Papp A→B at 2 h, 2 μM ([1]; Table 3-2) of the same compound?
**A.** 0.0476 ×10⁻⁶ cm/s

**Q.** What about the Papp B→A at 2 h, 2 μM ([1]; Table 3-1) of the same compound?
**A.** 12 ×10⁻⁶ cm/s

**Q.** What about the Papp B→A at 2 h, 2 μM ([1]; Table 3-2) of the same compound?
**A.** 14.3 ×10⁻⁶ cm/s

**Q.** For `CCOP(=O)(OCC)OCOC(=O)NC(C)(C)C(=O)N[C@H](COCc1ccccc1)C(=O)N1CCC2(CC1)CN(S(C)(=O)=O)c1ccccc12` [Compound 10, ((Diethoxyphosphoryl)oxy)methyl (R)-(1-((3-(benzoxy)-1-(1-(methylsulfonyl)spiro[indol-3,4′-piperidin]-1′-yl)-1-oxopropan-2-yl)amino)-2-methyl-1-oxopropan-2-yl)carbamate], which EC50 [2] is on record?
**A.** 152 nM

**Q.** Which EC50 [2] does the source give for `CC(=O)OC(C)OC(=O)NC(C)(C)C(=O)N[C@H](COCc1ccccc1)C(=O)N1CCC2(CC1)CN(S(C)(=O)=O)c1ccccc12` (stereo partly drawn) [Compound 14, (4R)-7,7-dimethyl-4-(1-(methylsulfonyl)spiro[indol-3,4′-piperidin]-1′-carbonyl)-6,9-dioxo-1-phenyl-2,10-dioxa-5,8-diazadodecan-11-yl Acetate] here?
**A.** 47.2 nM

**Q.** What about the “Effect on GH level compared with ibutamoren (in words)” value ([3]; rat, in vivo) of the same compound?
**A.** significantly better than that of ibutamoren

**Q.** And the “GH level in the circulation of rats (in words)” value ([3]; rat, in vivo)?
**A.** significantly increased

**Q.** What does the source list for `CC(C)(N)C(=O)N[C@H](COCc1ccccc1)C(=O)N1CCC2(CC1)CN(S(C)(=O)=O)c1ccccc12` [Ibutamoren, reference compound]?
**A.** Papp B→A at 2 h, 2 μM [4]: 19.5 ×10⁻⁶ cm/s; Mean Papp B to A [5]: 24.1 10^−6 cm/s; AUC(0-inf) ([6]; rat, whole blood, po, 3 mg/kg): 14.3 ± 11 ng·h/mL; AUC(0-t) ([6]; rat, whole blood, po, 3 mg/kg): 6.97 ± 3.27 ng·h/mL; Cmax ([6]; rat, whole blood, po, 3 mg/kg): 3.49 ± 2.81 ng/mL; Tmax ([6]; rat, whole blood, po, 3 mg/kg): 1.06 ± 1.68 h; half-life ([6]; rat, whole blood, po, 3 mg/kg): 9.61 ± 12.1 h; GH concentration in rats [3, 9]: 12.22 ± 9.90 ng/mL

**Q.** Which efflux ratio at 2 h, 2 μM ([4]; Caco-2, pH 7.4, Efflux Ratio) does the source give for `CC(=O)/C=C(/C)NC(C)(C)C(=O)N[C@H](COCc1ccccc1)C(=O)N1CCC2(CC1)CN(S(C)(=O)=O)c1ccccc12` [Compound 19, (R,Z)-N-(3-(benzoxy)-1-(1-(methylsulfonyl)spiro[indol-3,4′-piperidin]-1′-yl)-1-oxopropan-2-yl)-2-methyl-2-((4-oxopen-2-en-2-yl)amino)propionamide] here?
**A.** 189

**Q.** What about the Papp A→B at 2 h, 2 μM ([4]; Caco-2, pH 7.4, Mean Papp A to B) of the same compound?
**A.** 0.198 ×10⁻⁶ cm/s

**Q.** What about the Papp B→A at 2 h, 2 μM [4] of the same compound?
**A.** 37.3 ×10⁻⁶ cm/s

**Q.** Which EC50 [2] does the source give for `CC(OC(=O)NC(C)(C)C(=O)N[C@H](COCc1ccccc1)C(=O)N1CCC2(CC1)CN(S(C)(=O)=O)c1ccccc12)OC(=O)C(C)(C)C` (stereo partly drawn) [Compound 20, (4R)-7,7-dimethyl-4-(1-(methylsulfonyl)spiro[indolin-3,4′-piperidin]-1′-carbonyl)-6,9-dioxo-1-phenyl-2,10-dioxa-5,8-diazadodecan-11-yl Pivalate] here?
**A.** 37.7 nM

**Q.** Which EC50 [2] does the source give for `CCC(C)C(=O)OC(C)OC(=O)NC(C)(C)C(=O)N[C@H](COCc1ccccc1)C(=O)N1CCC2(CC1)CN(S(C)(=O)=O)c1ccccc12` (stereo partly drawn) [Compound 12, (4R)-7,7-dimethyl-4-(1-(methylsulfonyl)spiro[indol-3,4′-piperidin]-1′-carbonyl)-6,9-dioxo-1-phenyl-2,10-dioxa-5,8-diazadodecan-11-yl 2-methylbutyrate] here?
**A.** 35.9 nM

**Q.** For `CC(OC(=O)NC(C)(C)C(=O)N[C@H](COCc1ccccc1)C(=O)N1CCC2(CC1)CN(S(C)(=O)=O)c1ccccc12)OC(=O)C(C)C` (stereo partly drawn) [Compound 5, (4R)-7,7-dimethyl-4-(1-(methylsulfonyl)spiro[indol-3,4′-piperidin]-1′-carbonyl)-6,9-dioxo-1-phenyl-2,10-dioxa-5,8-diazadodecan-11-yl Isobutyrate], which EC50 ([2]; human GHSR/CHO stable cell line, Fluo-4 FLIPR) is on record?
**A.** 14.6 nM

**Q.** And the “Efflux Ratio” value [7]?
**A.** 170

**Q.** What about the “Mean Papp A to B” value ([7]; 2 hrs, pH 7.40) of the same compound?
**A.** 0.0518 10^−6 cm/s

**Q.** What about the “Mean Papp B to A” value ([7]; 2 hrs, pH 7.40) of the same compound?
**A.** 8.80 10^−6 cm/s

**Q.** And the “Cmax and AUC compared with positive control ibutamoren (in words)” value ([6]; rats, oral gavage)?
**A.** obviously superior

**Q.** What about the AUCINF-obs [6, 10] of the same compound?
**A.** 23.31 ± 10.81 ng·h/mL

**Q.** And the AUClast [6, 10]?
**A.** 21.61 ± 9.52 ng·h/mL

**Q.** And the Cmax [6, 10]?
**A.** 18.50 ± 13.60 ng/mL

**Q.** What about the T1/2 [6, 10] of the same compound?
**A.** 2.43 ± 0.13 h

**Q.** And the Tmax [6, 10]?
**A.** 0.44 ± 0.49 h

**Q.** And the “Subacute toxicity overall finding” value ([8]; dosage 80 times)?
**A.** no obvious abnormality

**Q.** What about the Anatomic findings [8, 11] of the same compound?
**A.** no anatomic abnormality

**Q.** What about the “Food intake and daily behavior” value [8, 11] of the same compound?
**A.** no significant abnormality

**Q.** And the Weight change ([8]; oral gavage 30, 100, 300 mpk once a day for 14 days, 2 weeks recovery (FIG. 1))?
**A.** no significant difference

**Q.** What about the “GH level in the circulation of rats (in words)” value ([3]; 15 minutes after administration, male rats) of the same compound?
**A.** significantly increased

**Q.** And the “GH concentration in rats” value [3, 9]?
**A.** 12.23 ± 10.44 ng/mL

**Q.** And the “GH concentration in rats” value ([3]; time point 15 min)?
**A.** 51.12 ± 33.98 ng/mL

**Q.** What about the “GH concentration in rats” value ([3]; time point 30 min) of the same compound?
**A.** 19.07 ± 7.17 ng/mL

**Q.** What about the “GH concentration in rats” value ([3]; time point 60 min) of the same compound?
**A.** 11.76 ± 4.14 ng/mL

Reference: US20240190875A1, “SPIROINDOLINE DERIVATIVE, AND PREPARATION METHOD AND MEDICAL USE THEREOF” (CHANGCHUN GENESCIENCE PHARMACEUTICAL CO., LTD., priority 2021, published 2024)
